These results are taken from ChEMBL document CHEMBL1155947, “Discovery of a novel series of benzoic acid derivatives as potent and selective human beta3 adrenergic receptor agonists with good oral bioavailability. 3. Phenylethanolaminotetraline (PEAT) skeleton containing biphenyl or biphenyl ether moiety” (J Med Chem, 2008).

A short description of data set [1]: Terminal half life in dog at 0.1 mg/mL, iv by cassette assay. The format is ADME, organism-based, Canis lupus familiaris. The settings on record: in vivo.
Data set [2] can be described thus: Cmax in dog at 0.32 mg/kg, po by cassette assay. To be noted: in vivo. Set-up: dose 0.32 mg/kg, route oral. It is filed as ADME, organism-based, Canis lupus familiaris.
Data set [3] is described as follows: Bioavailability in dog at 0.1 mg/mL, iv by cassette assay. The format is ADME, organism-based, Canis lupus familiaris. The settings on record: in vivo.
The subject of data set [4] is Canis familiaris. Kind of data set: Ratio of AUC for drug to AUC for 3-[((7S)-7-{[(2R)-2-(3-Chlorophenyl)-2-hydroxyethyl]amino}-5,6,7,8-tetrahydro-2-naphthalenyl)oxy]benzoic acid hydrochloride in dog at 0.1 or 0.20 mg/kg, po by cassette dosing assay. It is filed as ADME, organism-based, Canis lupus familiaris. Details: dose 0.2 mg/kg, route oral. To be noted: in vivo, 0.2 mg/kg.

Data set [5] concerns the target Beta-2 adrenergic receptor (Homo sapiens, UniProt P07550). Kind of data set: Agonist activity at human beta2 adrenergic receptor expressed in CHO cells assessed as cAMP accumulation. The format is functional, cell-based.
A short description of data set [6]: AUC (0 to 24 hrs) in dog at 0.32 mg/kg, po by cassette assay. The format is ADME, organism-based, Canis lupus familiaris. Details: time < 24 hr, dose 0.32 mg/kg, route oral. The settings on record: plasma.
Data set [7] has as its target Beta-3 adrenergic receptor (Homo sapiens, UniProt P13945). Kind of data set: Agonist activity at human cloned beta3 adrenergic receptor expressed in CHO cells assessed as cAMP accumulation. The format is functional, cell-based.
The species named for the next data set is Homo sapiens. Kind of data set: Ratio of EC50 for human cloned beta-1 adrenergic receptor to EC50 for human cloned beta3 adrenergic receptor.
Data set [8] can be described thus: Total clearance in dog at 0.1 mg/mL, iv by cassette assay. It is filed as ADME, organism-based, Canis lupus familiaris. To be noted: in vivo.
In data set [9] the test system is Canis familiaris. The data set can be described thus: Ratio of Cmax for drug to Cmax for 3-[((7S)-7-{[(2R)-2-(3-Chlorophenyl)-2-hydroxyethyl]amino}-5,6,7,8-tetrahydro-2-naphthalenyl)oxy]benzoic acid hydrochloride in dog at 0.1 or 0.20 mg/kg, po by cassette dosing assay. The format is ADME, organism-based, Canis lupus familiaris. Details: dose 0.2 mg/kg, route oral. The settings on record: in vivo, 0.2 mg/kg.

Data set [10] deals with Beta-1 adrenergic receptor (Homo sapiens, UniProt P08588).
Beta-1 adrenergic receptor, sequence (P08588 whole entry): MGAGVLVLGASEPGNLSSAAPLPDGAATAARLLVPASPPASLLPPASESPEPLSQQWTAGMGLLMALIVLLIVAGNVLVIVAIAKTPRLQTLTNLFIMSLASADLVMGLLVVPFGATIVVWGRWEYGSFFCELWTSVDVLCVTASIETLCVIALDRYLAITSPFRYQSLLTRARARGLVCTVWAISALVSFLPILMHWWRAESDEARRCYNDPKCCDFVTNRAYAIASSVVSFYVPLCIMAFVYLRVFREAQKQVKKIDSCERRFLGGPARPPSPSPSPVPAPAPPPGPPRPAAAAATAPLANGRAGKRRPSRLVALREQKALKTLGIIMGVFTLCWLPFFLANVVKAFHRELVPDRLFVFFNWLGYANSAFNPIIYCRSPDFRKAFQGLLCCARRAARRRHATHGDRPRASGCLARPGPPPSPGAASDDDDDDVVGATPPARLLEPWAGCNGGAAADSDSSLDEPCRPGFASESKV
Description: Agonist activity at human cloned beta-1 adrenergic receptor expressed in CHO cells assessed as cAMP accumulation
Data set [11] can be described thus: Cmax in dog at 0.2 mg/kg, po by cassette assay. The format is ADME, organism-based, Canis lupus familiaris. Details: dose 0.2 mg/kg, route oral. The settings on record: in vivo.
Data set [12] is described as follows: Oral bioavailability in dog at 0.12 mg/kg by cassette assay. It is filed as ADME, organism-based, Canis lupus familiaris. The settings on record: in vivo.
Data set [13] is described as follows: Total clearance in rat at 0.32 mg/kg, iv. It is filed as ADME, organism-based. Set-up: dose 0.32 mg/kg, route intravenous. The settings on record: in vivo.
Data set [14] in a line: AUC (0 to 24 hrs) in dog at 0.2 mg/kg, po by cassette assay. Details: time < 24 hr, dose 0.2 mg/kg, route oral. The format is ADME, organism-based, Canis lupus familiaris. To be noted: plasma.
A short description of data set [15]: Terminal half life in dog at 0.12 mg/kg, iv by cassette assay. It is filed as ADME, organism-based, Canis lupus familiaris. Details: dose 0.12 mg/kg, route intravenous. The settings on record: in vivo.
Data set [16] can be described thus: AUC (0 to 24 hrs) in rat at 1.0 mg/kg, po. To be noted: plasma. The format is ADME, organism-based. Set-up: time < 24 hr, dose 1 mg/kg, route oral.
Data set [17] in a line: Terminal half life in rat at 0.32 mg/kg, iv. It is filed as ADME, organism-based. Details: dose 0.32 mg/kg, route intravenous. To be noted: in vivo.
The nature of data set [18]: Total clearance in dog at 0.12 mg/kg, iv by cassette assay. It is filed as ADME, organism-based, Canis lupus familiaris. Set-up: dose 0.12 mg/kg, route intravenous. The settings on record: in vivo.
Data set [19] is described as follows: Cmax in rat at 1.0 mg/kg, po. It is filed as ADME, organism-based. Set-up: dose 1 mg/kg, route oral. The settings on record: in vivo.
Data set [20] in a line: Oral bioavailability in rat at 0.32 mg/kg. It is filed as ADME, organism-based. The settings on record: in vivo.
Data set [21] deals with Canis familiaris. The data set can be described thus: Ratio of AUC for drug to AUC for 4-((7S)-7-{[(2R)-2-(3-Chlorophenyl)-2-hydroxyethyl]amino}-5,6,7,8-tetrahydro-2-naphthalenyl)benzoic acid hydrochloride in dog at 0.1 or 0.20 mg/kg, po by cassette dosing assay. The format is ADME, organism-based, Canis lupus familiaris. Details: dose 0.2 mg/kg, route oral. The settings on record: in vivo, 0.2 mg/kg.

The test system of data set [22] is Canis familiaris. Kind of data set: Ratio of Cmax for drug to Cmax for 4-((7S)-7-{[(2R)-2-(3-Chlorophenyl)-2-hydroxyethyl]amino}-5,6,7,8-tetrahydro-2-naphthalenyl)benzoic acid hydrochloride in dog at 0.1 or 0.20 mg/kg, po by cassette dosing assay. It is filed as ADME, organism-based, Canis lupus familiaris. Details: dose 0.2 mg/kg, route oral. To be noted: in vivo, 0.2 mg/kg.

Beta-3 adrenergic receptor, sequence (P13945 whole entry): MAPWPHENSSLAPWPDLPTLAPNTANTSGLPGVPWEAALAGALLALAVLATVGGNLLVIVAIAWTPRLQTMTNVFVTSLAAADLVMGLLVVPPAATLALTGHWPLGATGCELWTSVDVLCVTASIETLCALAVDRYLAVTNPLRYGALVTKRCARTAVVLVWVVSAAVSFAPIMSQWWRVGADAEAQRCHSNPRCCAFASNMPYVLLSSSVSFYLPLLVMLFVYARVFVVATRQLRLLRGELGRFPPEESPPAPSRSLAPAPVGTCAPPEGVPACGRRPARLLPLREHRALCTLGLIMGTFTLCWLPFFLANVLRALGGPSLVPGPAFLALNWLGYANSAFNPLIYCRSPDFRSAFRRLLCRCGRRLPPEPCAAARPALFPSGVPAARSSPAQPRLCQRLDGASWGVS
Beta-2 adrenergic receptor, sequence (P07550 whole entry): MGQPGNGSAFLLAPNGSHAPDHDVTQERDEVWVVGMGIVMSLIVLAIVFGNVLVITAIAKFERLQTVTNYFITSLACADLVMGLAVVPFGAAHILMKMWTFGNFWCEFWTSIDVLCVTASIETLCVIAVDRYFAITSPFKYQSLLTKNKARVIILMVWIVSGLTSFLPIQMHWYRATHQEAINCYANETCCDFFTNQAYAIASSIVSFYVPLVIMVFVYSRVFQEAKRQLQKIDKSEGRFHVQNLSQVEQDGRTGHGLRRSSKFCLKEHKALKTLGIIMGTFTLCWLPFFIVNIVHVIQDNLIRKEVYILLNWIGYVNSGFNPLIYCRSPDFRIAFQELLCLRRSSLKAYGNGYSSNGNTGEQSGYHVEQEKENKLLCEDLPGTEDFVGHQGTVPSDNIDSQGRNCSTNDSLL

Consider `O=C(O)c1cccc(Oc2ccc3c(c2)C[C@@H](NC[C@H](O)c2cccc(Cl)c2)CC3)c1`, for which the half-life in data set [1] is 474 min. For the same compound, the Cmax in [2] is 151 ng/mL. The bioavailability in data set [3] was 81%. Moreover, the “Ratio AUC” value with Canis familiaris [4] was determined as 1. The EC50 was more than 1000 nM in [5], 7.1 nM in data set [7] and more than 1000 nM in data set [10]. For the same compound, in data set [6], the AUC(0-t) at 24 h is 2000 ng·h/mL. Moreover, the Ratio EC50 in the data set listed under Homo sapiens is more than 138. Moreover, the clearance in [8] is 2.4 mL/min/kg. Also, the Ratio in the data set on Canis familiaris [9] is reported as 1.

Consider `O=C(O)COc1ccc2c(c1)C[C@@H](NC[C@H](O)c1cccc(Cl)c1)CC2`, for which the Cmax in data set [11] came to 92.5 ng/mL; in data set [19], 28.1 ng/mL. The bioavailability in [12] amounted to 83.2%; in data set [20], 60%. Further, the clearance in data set [13] amounted to 52.6 mL/min/kg; in [18], 3 mL/min/kg. Besides, the AUC(0-t) at 24 h was found to be 902 ng·h/mL in [14] and 177 ng·h/mL in data set [16]. Moreover, the half-life in data set [15] was 228 min; in data set [17], 70.8 min. Also, the EC50 in data set [5] is more than 10000 nM; in data set [7], 39 nM; in [10], 1500 nM. Moreover, the Ratio EC50 in the data set listed under Homo sapiens amounted to 38.

As to `Cc1ccc([C@@H](O)CN[C@H]2CCc3ccc(-c4ccc(C(=O)O)cc4)cc3C2)cc1`, the “Ratio AUC” value in the data set with Canis familiaris [21] is reported as 0.77. The figures for the EC50 in data set [7] and in data set [10] were 0.79 nM and more than 1000 nM, respectively. Besides, the Ratio EC50 in the data set listed under Homo sapiens is more than 1260. For the same compound, in the data set on Canis familiaris [22], the Ratio was found to be 1.06.

Regarding `O=C(O)c1ccc(-c2ccc3c(c2)C[C@@H](NC[C@H](O)c2ccc(Cl)cc2)CC3)c(F)c1`, the “Ratio AUC” value in the data set with Canis familiaris [21] is listed as 1.01. For the same compound, the EC50 is 1.4 nM in [7] and 980 nM in data set [10]. In addition, in the data set listed under Homo sapiens, the Ratio EC50 worked out at 700. The Ratio with Canis familiaris [22] came out at 1.13.

With `O=C(O)c1ccc(Oc2ccc3c(c2)C[C@@H](NC[C@H](O)c2cccc(Cl)c2)CC3)nc1`, the half-life in data set [1] is 168 min. In data set [2], this compound had a Cmax of 49 ng/mL. In data set [3], this compound gave a bioavailability of 61%. In addition, the EC50 is more than 1000 nM in data set [5], 1.47 nM in [7] and 70 nM in data set [10]. Further, the AUC(0-t) at 24 h in data set [6] amounted to 320 ng·h/mL. For the same compound, in the data set filed under Homo sapiens, the Ratio EC50 stood at 50. The clearance in [8] came out at 10.8 mL/min/kg.

In the case of `O=C(O)c1ccc(-c2ccc3c(c2)C[C@@H](NC[C@H](O)c2ccc(Cl)nc2)CC3)cc1`, the EC50 in data set [5] was more than 1000 nM; in data set [7], 0.85 nM; in [10] it was 200 nM. For the same compound, in the data set with Canis familiaris [21], the “Ratio AUC” value is recorded as 0.53. The Ratio EC50 in the data set listed under Homo sapiens was more than 1260. The Ratio in the data set on Canis familiaris [22] stood at 0.73.

Compound `O=C(O)c1cccc(Oc2ccc3c(c2)C[C@@H](NC[C@H](O)c2cccc(Cl)c2)CCC3)c1` had a half-life in data set [1] of 180 min. This compound also displayed a Cmax in [2] of 65.7 ng/mL. Besides, the bioavailability in data set [3] was determined as 69%. Also, the figures for the EC50 in data set [5], in data set [7] and in data set [10] were more than 1000 nM, 4.5 nM and 160 nM, respectively. This compound also registered an AUC(0-t) at 24 h in data set [6] of 538 ng·h/mL. The Ratio EC50 in the data set listed under Homo sapiens amounted to 35. Besides, the clearance in data set [8] is 6.8 mL/min/kg.
